Assay results taken from PMC8162404, “Proteomimetic surface fragments distinguish targets by function” (Chemical Science, 2020).

How the values were obtained:
CaM [1] = target: T1, CaM (Bos taurus, UniProt P62157); experiment: Pull-down assay with immobilized protein and LSM libraries; type: binding, bovine; conditions: H14 library; 1:2 stoichiometry assumed; read-out: Surface mapping KD (apparent)
T1 construct: made in house; host or cells: E. coli BL21 (DE3)
In short: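 His-tagged protein immobilized on Co-NTA resin, equilibrated 30 min at room temperature with LSM sublibraries (64 members, […]), equimolar protein to total probe. CaM buffer: 20 mM HEPES pH 7.4, 150 mM NaCl, 5 mM CaCl2. Bound fractions from HPLC-MS loss of unbound probe versus protein-free resin control; Kd derived.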

Gal-1 [2] = target: T2, Gal-1 (Homo sapiens, UniProt P09382); experiment: as above; type: binding; conditions: H14 library; 1:1 binding assumed; read-out: Surface mapping KD (apparent)
T2 construct: made in house; host or cells: E. coli BL21(DE3)
In short: (§1)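 His-tagged protein immobilized on Co-NTA resin (64 µM) in 20 mM HEPES pH 7.4, 150 mM NaCl, equilibrated 30 min at room temperature with foldamer LSM sublibraries at equimolar total concentration. Unbound fractions quantified by HPLC-MS versus protein-free resin control; apparent KD assumes 1:1 binding.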

S100B [3] = target: T3, S100B (Homo sapiens, UniProt P04271); experiment: as above; type: binding; conditions: for Kd: H14 library, 1:1 binding assumed, read-out: Surface mapping KD (apparent); for Affinity class of probe (high, medium, low) in pull-down: H14 probes selected for validation
T3 construct: made in house; host or cells: Escherichia coli BL21(DE3)
T3 sequence (P04271 1-92): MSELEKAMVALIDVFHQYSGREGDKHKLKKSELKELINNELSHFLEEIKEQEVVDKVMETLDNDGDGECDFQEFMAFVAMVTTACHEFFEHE
In short: (§2)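 Buffers were HEPES pH 7.4 with 150 mM NaCl, plus 1 mM TCEP and 1 mM CaCl2 (50 mM HEPES) for S100A4 and S100B, 1 mM TCEP for Gal-1, and no additive for RecQ-WH. Immobilized protein at 64 µM was equilibrated 30 min with the LSM sublibrary, and unbound probes were measured by LC-MS.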

S100A4 [4] = target: T4, S100A4 (Homo sapiens, UniProt P26447); experiment: as above; type: binding; conditions: for Kd: H14 library, 1:1 binding assumed, read-out: Surface mapping KD (apparent); for Affinity class of probe (high, medium, low) in pull-down: H14 probes selected for validation
T4 construct: made in house; host or cells: Escherichia coli BL21(DE3)
In short: as §2

S100A4 [5] = target: T4, S100A4; experiment: Competition pull-down with native ligand NMIIA (1893–1923); type: binding; conditions: H14 library; competitor peptide 200 µM; read-out: Surface mapping KD (apparent), competition
S100B [6] = target: T3, S100B; experiment: Competition pull-down with native ligand RSK1 (689–735); type: binding; conditions: H14 library; competitor peptide 200 µM; read-out: Surface mapping KD (apparent), competition
RecQ-WH [7] = target: T5, RecQ-WH (Escherichia coli, UniProt P15043); experiment: Pull-down assay with immobilized protein and LSM libraries; parameters: species or system E. coli; conditions: H14 library; 1:1 binding assumed; read-out: Surface mapping KD (apparent)
T5 construct: coding for residues 408– 523 of E. coli RecQ; made in house; host or cells: E. coli BL21(DE3)
In short: as §1

RecQ-WH [8] = target: T5, RecQ-WH; experiment: Competition pull-down with native ligand SSB-Ct8; type: binding, E. coli; conditions: H14 library; competitor peptide 200 µM; read-out: Surface mapping KD (apparent), competition
CaM [9] = target: T1, CaM; experiment: Competition pull-down with native ligand TRPV1-Ct15; type: binding, bovine; conditions: H14 library; competitor peptide 200 µM; read-out: Surface mapping KD (apparent), competition
Gal-1 [10] = target: T2, Gal-1; experiment: Competition pull-down with lactose; type: binding; conditions: H14 library; lactose 10 mM; read-out: Surface mapping KD (apparent), competition
In short: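 His6-tagged proteins immobilized on Co-NTA resin at 64 µM final with 64-member LSM foldamer sublibraries (1 M each, as printed) in pH 7.4 HEPES/NaCl buffers (Ca2+/TCEP per target), 30 min RT; competitor peptides 200 µM final, lactose 10 mM for Gal-1. Bound fractions from LC-MS loss vs protein-free resin; KD assuming 1:1 binding.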

T4 sequence (P26447 whole entry): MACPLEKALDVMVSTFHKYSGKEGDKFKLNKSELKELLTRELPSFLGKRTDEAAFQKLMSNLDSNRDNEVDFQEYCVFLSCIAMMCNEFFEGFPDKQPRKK
T5 sequence (P15043 408-523): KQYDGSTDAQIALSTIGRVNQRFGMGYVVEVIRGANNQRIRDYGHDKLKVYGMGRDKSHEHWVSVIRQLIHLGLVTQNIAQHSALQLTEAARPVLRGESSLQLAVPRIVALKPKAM
T2 sequence (P09382 whole entry): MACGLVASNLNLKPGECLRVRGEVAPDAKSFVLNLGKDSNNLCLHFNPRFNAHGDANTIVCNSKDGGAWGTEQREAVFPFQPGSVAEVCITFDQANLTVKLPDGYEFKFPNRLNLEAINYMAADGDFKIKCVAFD

Structure (SMILES) | Kd (CaM [1]) [µM] | Kd (Gal-1 [2]) [µM] | Kd (S100B [3]) [µM] | Kd (S100A4 [4]) [µM] | Kd (S100A4 [5]) [µM] | Kd (S100B [6]) [µM] | Kd (RecQ-WH [7]) [µM] | Kd (RecQ-WH [8]) [µM] | Kd (CaM [9]) [µM] | Kd (Gal-1 [10]) [µM] | Affinity class of probe (high, medium, low) in pull-down (S100B [3]) | Affinity class of probe (high, medium, low) in pull-down (S100A4 [4])
CC[C@H](C)[C@@H](CC(=O)N[C@H]1CCCC[C@@H]1C(N)=O)NC(=O)[C@H]1CCCC[C@@H]1NC(=O)[C@H]1CCCC[C@@H]1NC(=O)C[C@H](Cc1ccccc1)NC(=O)[C@H]1CCCC[C@@H]1N [H14 FI] | 0.6 | 102 | 21 | 9 | 280 | 202 | 79 | 266 | 121 | 164 | – | –
CC(C)C[C@@H](CC(=O)N[C@H]1CCCC[C@@H]1C(N)=O)NC(=O)[C@H]1CCCC[C@@H]1NC(=O)[C@H]1CCCC[C@@H]1NC(=O)C[C@H](Cc1ccccc1)NC(=O)[C@H]1CCCC[C@@H]1N [H14 FL] | 0.6 | 102 | 21 | 9 | 280 | 202 | 79 | 266 | 121 | 164 | – | –
CC(C)[C@@H](CC(=O)N[C@H]1CCCC[C@@H]1C(N)=O)NC(=O)[C@H]1CCCC[C@@H]1NC(=O)[C@H]1CCCC[C@@H]1NC(=O)C[C@H](Cc1ccccc1)NC(=O)[C@H]1CCCC[C@@H]1N [H14 FV] | 1.2 | 199 | 44 | 12 | 376 | 253 | 129 | – | 141 | 323 | – | –
NC(=O)[C@H]1CCCC[C@@H]1NC(=O)C[C@H](Cc1c[nH]c2ccccc12)NC(=O)[C@H]1CCCC[C@@H]1NC(=O)[C@H]1CCCC[C@@H]1NC(=O)C[C@H](Cc1ccccc1)NC(=O)[C@H]1CCCC[C@@H]1N [H14 FW] | 0.7 | 81 | 27 | 24 | 440 | 177 | 63 | 153 | 118 | 122 | – | –
CC[C@H](C)[C@@H](CC(=O)N[C@H]1CCCC[C@@H]1C(=O)N[C@H]1CCCC[C@@H]1C(=O)N[C@H](CC(=O)N[C@H]1CCCC[C@@H]1C(N)=O)Cc1ccccc1)NC(=O)[C@H]1CCCC[C@@H]1N [H14 IF] | 9 | 33 | 9 | 2 | 162 | 64 | 186 | 439 | 102 | 53 | high | high
CC[C@H](C)[C@@H](CC(=O)N[C@H]1CCCC[C@@H]1C(N)=O)NC(=O)[C@H]1CCCC[C@@H]1NC(=O)[C@H]1CCCC[C@@H]1NC(=O)C[C@@H](NC(=O)[C@H]1CCCC[C@@H]1N)[C@@H](C)CC [H14 II] | 9 | 24 | 19 | 2 | 101 | 147 | 160 | 364 | 280 | 50 | – | –
CC[C@H](C)[C@@H](CC(=O)N[C@H]1CCCC[C@@H]1C(=O)N[C@H]1CCCC[C@@H]1C(=O)N[C@H](CC(=O)N[C@H]1CCCC[C@@H]1C(N)=O)CC(C)C)NC(=O)[C@H]1CCCC[C@@H]1N [H14 IL] | 9 | 24 | 19 | 2 | 101 | 147 | 206 | 266 | 276 | 50 | high | high
CC[C@H](C)[C@@H](CC(=O)N[C@H]1CCCC[C@@H]1C(=O)N[C@H]1CCCC[C@@H]1C(=O)N[C@H](CC(=O)N[C@H]1CCCC[C@@H]1C(N)=O)Cc1c[nH]c2ccccc12)NC(=O)[C@H]1CCCC[C@@H]1N [H14 IW] | 0.4 | 38 | 21 | 8 | 244 | 67 | 195 | 315 | 88 | 65 | – | –
CC(C)C[C@@H](CC(=O)N[C@H]1CCCC[C@@H]1C(=O)N[C@H]1CCCC[C@@H]1C(=O)N[C@H](CC(=O)N[C@H]1CCCC[C@@H]1C(N)=O)Cc1ccccc1)NC(=O)[C@H]1CCCC[C@@H]1N [H14 LF] | 11 | 25 | 11 | 3 | 140 | 71 | 186 | 439 | 162 | 43 | – | –
CC[C@H](C)[C@@H](CC(=O)N[C@H]1CCCC[C@@H]1C(N)=O)NC(=O)[C@H]1CCCC[C@@H]1NC(=O)[C@H]1CCCC[C@@H]1NC(=O)C[C@H](CC(C)C)NC(=O)[C@H]1CCCC[C@@H]1N [H14 LI] | 16 | 24 | 19 | 2 | 101 | 147 | 160 | 355 | 280 | 50 | – | –
CC(C)C[C@@H](CC(=O)N[C@H]1CCCC[C@@H]1C(N)=O)NC(=O)[C@H]1CCCC[C@@H]1NC(=O)[C@H]1CCCC[C@@H]1NC(=O)C[C@H](CC(C)C)NC(=O)[C@H]1CCCC[C@@H]1N [H14 LL] | 16 | 17 | 28 | 1 | 117 | 147 | 206 | 253 | 276 | 32 | – | –
CSCC[C@@H](CC(=O)N[C@H]1CCCC[C@@H]1C(N)=O)NC(=O)[C@H]1CCCC[C@@H]1NC(=O)[C@H]1CCCC[C@@H]1NC(=O)C[C@H](CC(C)C)NC(=O)[C@H]1CCCC[C@@H]1N [H14 LM] | 14 | 138 | 67 | 4 | 318 | 163 | 233 | – | 468 | 334 | – | –
CC[C@H](C)[C@@H](CC(=O)N[C@H]1CCCC[C@@H]1C(N)=O)NC(=O)[C@H]1CCCC[C@@H]1NC(=O)[C@H]1CCCC[C@@H]1NC(=O)C[C@H](CCSC)NC(=O)[C@H]1CCCC[C@@H]1N [H14 MI] | 3 | 145 | 62 | 11 | 447 | 269 | 226 | – | 435 | 235 | – | –
CSCC[C@@H](CC(=O)N[C@H]1CCCC[C@@H]1C(=O)N[C@H]1CCCC[C@@H]1C(=O)N[C@H](CC(=O)N[C@H]1CCCC[C@@H]1C(N)=O)CC(C)C)NC(=O)[C@H]1CCCC[C@@H]1N [H14 ML] | 3 | 145 | 62 | 11 | 447 | 269 | 226 | – | 435 | 235 | – | –
CC(C)[C@@H](CC(=O)N[C@H]1CCCC[C@@H]1C(=O)N[C@H]1CCCC[C@@H]1C(=O)N[C@H](CC(=O)N[C@H]1CCCC[C@@H]1C(N)=O)Cc1ccccc1)NC(=O)[C@H]1CCCC[C@@H]1N [H14 VF] | 5 | 93 | 20 | 3 | 474 | 91 | 347 | – | 239 | 193 | – | –
CC(C)C[C@@H](CC(=O)N[C@H]1CCCC[C@@H]1C(N)=O)NC(=O)[C@H]1CCCC[C@@H]1NC(=O)[C@H]1CCCC[C@@H]1NC(=O)C[C@@H](NC(=O)[C@H]1CCCC[C@@H]1N)C(C)C [H14 VL] | 13 | 66 | 43 | 3 | 246 | 180 | 366 | – | – | 220 | medium | high
